Measurements taken from patent publication US20050112251A1, “Preservation of liquids” (priority 2002, published 2005).

Columns and labels:
[1] = test system: fungal spores which survived the PEF treatment; assay: Inhibition of outgrowth of fungal spores, summary of agar diffusion MIC; type: cell-based; details: summary of Table 1
Method: (§1) The minimal inhibition concentration (MIC) of these fungi or the minimal effective amount of the antifungal compound was determined using the agar diffusion method, which is well known in the art. Fungus spores were grown on agar plates containing different concentrations of natamycin. The concentration of natamycin on which no visible growth could be observed was considered as the minimal inhibition concentration for that particular fungus strain.

[2] = Stability of antifungal agent in apple juice during PEF treatment (HPLC); type: physicochemical; details: for inactivation of the antifungal agent by the PEF treatment: general statement in the description
Method: (§2) The pulsed electric fields treatments were applied according to well-known procedures for PEF-treatments of liquids. The apple juice to be treated was pumped through the PEF-treatment chamber with a flow rate of 60 litres per hour. The treatment temperature also called juice temperature before the PEF-treatment chamber was 17° C. The value of the electric field strength and the pulse length kept constant were 35 kV/cm and 2-μs, respectively. Three samples points were validated by variation of the pulse frequency, from 8.6 Hz (treatment A) to 5.7 Hz (treatment B) and 2.9 Hz (treatment C). With the above-mentioned parameters, the apple juice received 12, 8 or 4 pulses; those correspond to an energy density of 71, 37 and 12.5 J/ml of juice, respectively.
This example illustrates the resistance of natamycin to PEF treatments. Natamycin was added to apple juice at a concentration of 5 ppm and submitted to pulsed electric field treatments as described in example 3. The natamycin content after the PEF-treatments was determined by HPLC.

[3] = test system: Zygosaccharomyces bailii CBS 1097; assay: Time to spoilage of inoculated apple juice (visible growth, turbidity); type: cell-based; details: room temperature
Method: (§3) All experiments were done with pure apple juice. The chosen concentrations of natamycin were sub-optimal (=below MIC).
(§4) All experiments were executed in duplo. • a. The effect of natamycin against the spore forming yeast Zygosaccharomyces bailii CBS 1097 was examined. Apple juice was inoculated with 10^4 Colony Forming Units (CFU)/ml of apple juice. Natamycin was added at a concentration of 1 ppm. • b. The effect of natamycin was tested against Penicillium italicum ATCC 36041. A spore suspension was prepared using well-known methods. The freshly prepared spore suspension was added to apple juice to a final concentration of 104 spores/ml of apple juice. Natamycin was added at a concentration of 5 ppm.
(§5) The samples were incubated at room temperature until fungal growth was visually observed (turbidity of the juice).
as §2
The chosen inoculation levels, natamycin concentrations and PEF treatments were as described in the examples 2 and 3.
(§6) All samples were incubated at room temperature until fungal growth was visually observed (turbidity of the juice).
Zygosaccharomyces bailii was inoculated in apple juice as described in example 2. Sorbate was added at a concentration of 800 ppm.
The PEF-treatment was used as described in the example 3. […] (treatment B).
The samples were incubated at room temperature.

most food born fungi = details: cited from earlier work
[4] = test system: Penicillium italicum ATCC 36041; assay: Time to spoilage of inoculated apple juice (visible growth, turbidity); type: cell-based; details: room temperature
Method: as §3, §4, §5, §2
The chosen inoculation levels, natamycin concentrations and PEF treatments were as described in the examples 2 and 3. The natamycin can be added before or after the PEF treatment.
as §6

[5] = test system: Byssochlamys nivea 424.300; assay: Natamycin MIC, agar diffusion method; type: cell-based; details: Paecilomyces niveus, agar plates, no visible growth
Method: as §1

[6] = test system: Zygosporium mycophilum 396.49; assay: Natamycin MIC, agar diffusion method; type: cell-based; details: isolated from apple pulp
Method: as §1

[7] = test system: Peacilomyces variotii 10274; assay: Natamycin MIC, agar diffusion method; type: cell-based
Method: as §1

[8] = test system: Cladosporium tenuissimum 117.79; assay: Natamycin MIC, agar diffusion method; type: cell-based; details: isolated from fruit
Method: as §1

[9] = test system: Talaromyces macrosporus 130.89; assay: Natamycin MIC, agar diffusion method; type: cell-based; details: isolated from pineapple juice
Method: as §1

[10] = test system: Stemphiliomma valparadisiacum 510.83; assay: Natamycin MIC, agar diffusion method; type: cell-based; details: isolated from apple juice
Method: as §1

[11] = test system: Mucor circinelloides 366.70; assay: Natamycin MIC, agar diffusion method; type: cell-based; details: isolated from strawberries
Method: as §1

[12] = test system: Aspergillus versicolor 245.62; assay: Natamycin MIC, agar diffusion method; type: cell-based
Method: as §1

[13] = test system: Talaromyces macrosporus CBS 130.89 spores; assay: Time to visible growth of heat-resistant fungus spores in apple juice; type: cell-based; details: 104 spores/ml apple juice, incubation 25° C.
Method: This example describes the activity of natamycin against spores of a heat resistant fungal species, which is well known for causing spoilage problems in food industry. All experiments were executed on Talaromyces macrosporus CBS 130.89 spores suspended in pure apple juice. The chosen concentration of natamycin was sub-optimal. […] All experiment were executed in duplo.
Apple juice was inoculated with 104 spores/ml of apple juice. Natamycin was added at a concentration of 2.5 ppm. The spores suspended in the apple juice were submitted to a heat treatment at 80° C. for 5 minutes in order to stimulate their germination.
The samples were incubated at room temperature until fungal growth was visually observed (turbidity of the juice). Growth was observed after 4 days of incubation at 25° C.
This example describes the effect of a Pulsed Electric Field treatment against heat-resistant spores of Talaromyces macrosporus CBS 130.89. The pulsed electric fields treatments were applied as describe in the example 3. One sample point was validated for a frequency of 8.6 Hz (treatment A).
The chosen inoculation levels, natamycin concentrations and PEF treatments were as described in the examples 8 and 9. The natamycin can be added before or after the PEF treatment.
All samples were incubated at room temperature until fungal growth was visually observed (turbidity of the juice). […]

[14] = cited from earlier work
[15] = natamycin 5 ppm + PEF-treatment C (2.9 Hz, 12.5 J/ml)

## C[C@@H]1C/C=C/C=C/C=C/C=C/[C@H](O[C@@H]2O[C@H](C)[C@@H](O)[C@H](N)[C@@H]2O)C[C@@H]2O[C@](O)(C[C@@H](O)C[C@H]3O[C@@H]3/C=C/C(=O)O1)C[C@H](O)[C@H]2C(=O)O [natamycin]
[1]
  concentration that inhibits the outgrowth of fungal spores: < 5 ppm
[2]; 5 ppm in apple juice, PEF treatments as in example 3
  natamycin content after the PEF-treatments (HPLC): None of the analyzed samples showed a decrease
[2]
  inactivation of the antifungal agent by the PEF treatment: not inactivated
[3]; natamycin 1 ppm + PEF-treatment A (8.6 Hz, 71 J/ml)
  Time to spoilage, natamycin added before PEF-treatment: >30 days
[3]; natamycin 1 ppm + PEF-treatment B (5.7 Hz, 37 J/ml)
  Time to spoilage, natamycin added after PEF-treatment: >30 days
[3]; natamycin 1.0 ppm alone, 10^4 CFU/ml
  Time to spoilage: 2 days
Most food born fungi
  MIC (Minimal Inhibition Concentration): less than 10 ppm
[4]; [15]
  Time to spoilage, natamycin added after PEF-treatment: >30 days
  Time to spoilage, natamycin added before PEF-treatment: >30 days
[4]; natamycin 5.0 ppm alone, 104 spores/ml
  Time to spoilage: 4 days
[5]
  MIC: < 2.5 µg/mL
[6]
  MIC: < 2.5 µg/mL
[7]
  MIC: < 2.5 µg/mL
[8]
  MIC: < 2.5 µg/mL
[9]
  MIC: < 2.5 µg/mL
[10]
  MIC: < 5 µg/mL
[11]
  MIC: < 2.5 µg/mL
[12]
  MIC: < 2.5 µg/mL
[13]; natamycin 2.5 ppm + PEF-treatment A
  Time until growth observed: 9 days
[13]; natamycin 2.5 ppm alone, heat activation 80° C. 5 minutes
  Time until growth observed: 4 days
[14]
  solubility in water: 30 to 50 ppm

## CC=CC=CC(=O)O [sorbate]
[2]
  inactivation of the antifungal agent by the PEF treatment: not inactivated
[3]; sorbate 800 ppm + PEF-treatment B
  Time without observed fungal growth: at least 30 days
[3]; sorbate 800 ppm alone
  Time until fungal growth visually observed: 6 days
